Data as given in article PMC8202330, “Phosphorylation of the LIR Domain of SCOC Modulates ATG8 Binding Affinity and Specificity” (Journal of Molecular Biology, 2021).
Residues, ends and D or L forms follow the SMILES beside them. *: point of attachment. Cbz = O=C(OCc1ccccc1)*

System: EGFP-SCOC (isoform 1 and 3) in HeLa Flp-In T-Rex cells
Test: Western blot of EGFP-SCOC protein levels with lysosomal or proteasomal inhibitors
Type: cell-based
Conditions: 7 h in full medium or EBSS, 10 µM MG132, 1 µM epoxymycin, 100 nM Bafilomycin A1
Method: To determine whether SCOC is functioning as an autophagy receptor and degraded by autophagy, we induced expression of EGFP-SCOC (isoform 1 and 3) in HeLa cells followed by 7 h EBSS starvation in the presence and absence of lysosomal or proteasomal inhibitors. […] Thus, both SCOC isoform1 and 3 are not turned over by autophagy, but by the proteasome.
HeLa Flp-In T-Rex cell lines expressing GFP-SCOC (isoform 1), GFP-SCOC (isoform 3), GFP-SCOC F14A/I17A (isoform 3) from a tetracycline inducible CMV promoter were made using the FlpIn T-Rex system (Thermofisher, R71407). pDest-EGFP-Flp-In SCOC iso1, pDest-EGFP-Flp-In SCOC iso3 and pDest-EGFP-Flp-In SCOC iso3 LIRm constructs were established by GATEWAY cloning into the pDEST-EGFP-FlpIn vector.[18] The HeLa-based Flp-In T-Rex host cell line (Invitrogen) contains a single integrated FRT site for insertion of selected constructs. To generate stable cell lines, Flp-In plasmids carrying the selected GFP-tagged constructs were co-transfected with pOG44 encoding the Flp-In recombinase in the ratio of 1:3. Cells were selected by treatment with 200 µg/ml Hygromycin B (Invitrogen, #10687010) and 7,5 µg/ml Blasticidine (Gibco, A1113903). Expression from the CMV-TetO2 promoter was induced by adding 0.5 μg/ml of tetracycline (Sigma, T7660) for 16 to 24 hours. HeLa Flp-In T-Rex cell lines were maintained in Dulbecco’s modified Eagle’s medium supplemented with 10% fetal calf serum, 4 mM l-glutamine, 1% streptomycin-penicillin, 100 µg/ml Hygromycin B, and 3.5 µg/ml Blasticitidine. Cells were treated as indicated with 100 nM Bafilomycin A1, 10 µM MG132, or 1 µM epoxomicin in full medium or Earle’s balanced salt solution (EBSS).
Cells were lysed in ice-cold TNTE buffer (20 mM Tris-HCl, pH 7.4, 150 mM NaCl, 0.5% w/v Triton X-100, 10% v/v glycerol, 5 mM EDTA) containing EDTA-free Complete Protease Inhibitor cocktail (Roche) and PhosSTOP (Roche). Lysates were cleared by centrifugation and resolved on NuPAGE Bis-Tris 4–12% gels (Life Technologies) followed by transfer onto a PVDF membrane (Millipore). […]

SMILES	SCOC isoform 1 and 3 protein levels
CO/C1=C\C(C)=C\[C@@H](C)[C@@H](O)[C@@H](C)C/C(C)=C/C=C/[C@H](OC)[C@@H]([C@@H](C)[C@@H](O)[C@H](C)[C@@]2(O)C[C@@H](O)[C@H](C)[C@@H](C(C)C)O2)OC1=O [BafilomycinA1]	did not have any effect
CC(C)C[C@@H](C=O)NC(=O)[C@H](CC(C)C)NC(=O)[C@H](CC(C)C)NC(=O)OCc1ccccc1 [MG132] (Cbz-Leu-Leu-Leu-aldehyde)	increased
CC[C@H](C)[C@H](NC(=O)[C@H]([C@@H](C)CC)N(C)C(C)=O)C(=O)N[C@H](C(=O)N[C@@H](CC(C)C)C(=O)[C@@]1(C)CO1)[C@@H](C)O [epoxymycin]	increased
